Consider 16 compounds from patent US10570117B2, “Phenylimidazole compound” (Otsuka Pharmaceutical Factory, Inc., priority 2015, dated 2020).

Converted amounts (≈) assume the structure as drawn. Read-outs that look alike come from different tables or passages of the source.

Series [1] in a line: Solubility in gastric juice or intestinal juice model fluid (precipitation method using DMSO). The series is classed as physicochemical. The conditions noted are these: room temperature. How it is done:
Solubility in Gastric Juice or Intestinal Juice Model Fluid
Measurement was performed by a precipitation method using DMSO. Specifically, each of the dimethyl sulfoxide (DMSO) solutions of the compounds was individually added to 1st fluid for Disintegration Test of Japanese Pharmacopoeia (pH: 1.2) or 2nd fluid for Disintegration Test of Japanese Pharmacopoeia (pH: 6.8), and the mixtures were stirred by shaking at room temperature for 24 hours. Subsequently, insoluble substances in each mixture were removed by filtration, and the UV absorption of each filtrate was measured. The obtained values were individually applied to the calibration curves of the compounds prepared in advance to calculate the concentrations of the compounds dissolved (μg/mL).

Setting [2] is: pH 1.2, simulated gastric fluid, kinetic from dmso stock, 1st fluid for Disintegration Test of Japanese Pharmacopoeia (pH: 1.2), read-out: Solubility (μg/mL) 1st fluid.
Where [3] appears, read: pH 6.8, kinetic from dmso stock, 2nd fluid for Disintegration Test of Japanese Pharmacopoeia (pH: 6.8), read-out: Solubility (μg/mL) 2nd fluid.

In general, melting point refers to the temperature of the solid-liquid transition. `COc1cc(OCc2ccc(Br)cc2F)ccc1-c1c[nH]c(C2CC2)n1` [Example 83] came in with a melting point of 157 to 160 °C. For the same compound, the solubility at 24 h in series [1] (setting [2]) was 27.8 µg/mL (≈ 66.6 µM). The solubility at 24 h in series [1] (setting [3]) was found to be 2.9 µg/mL (≈ 6.95 µM).

Consider `COc1cc(OCc2ccc(C(F)(F)F)cc2)ccc1-c1cnc(-c2ccc(F)nc2)[nH]1` [Example 115], for which the melting point fell in the range of 125 to 135 °C. Besides, the solubility at 24 h in series [1] (setting [2]) was 15.5 µg/mL (≈ 35 µM). In series [1] (setting [3]), the solubility at 24 h is 2 µg/mL (≈ 4.51 µM).

With `COc1cc(-c2c[nH]c(C3CCC(C)CC3)n2)ccc1OCc1ccc(C(F)(F)F)cn1` (stereo not drawn) [Example 64], the melting point lay within 147 to 150 °C. In series [1] (setting [2]), the solubility at 24 h is 56.2 µg/mL (≈ 126 µM). The solubility at 24 h in series [1] (setting [3]) is 2.6 µg/mL (≈ 5.84 µM).

For `COc1cc(O[C@@H](C)c2ccc(C(F)(F)F)nc2)ccc1-c1[nH]c(-c2ccc(F)nc2)nc1Cl` [Example 291], the melting point fell in the range of 74 to 97 °C. For the same compound, the solubility at 24 h in series [1] (setting [2]) was 9.9 µg/mL (≈ 20.1 µM). Further, the solubility at 24 h in series [1] (setting [3]) amounted to 3.5 µg/mL (≈ 7.1 µM).

For the compound `COc1cc(-c2c[nH]c(-c3ccc(C)nc3)n2)ccc1OCc1ccc(C(F)(F)F)cn1` [Example 85], the melting point is 201 to 203 °C (dec.). Besides, in series [1] (setting [2]), the solubility at 24 h is 85.4 µg/mL (≈ 194 µM). Besides, the solubility at 24 h in series [1] (setting [3]) came out at 1 µg/mL (≈ 2.27 µM).

Turning to `COc1cc(-c2c[nH]c(C34CC5CC(CC(C5)C3)C4)n2)cc(OC)c1OCc1ccc(C(F)(F)F)cn1` [Example 66], the melting point was 144 to 168 °C. For the same compound, the solubility at 24 h in series [1] (setting [2]) is 56.9 µg/mL (≈ 111 µM). Besides, the solubility at 24 h in series [1] (setting [3]) was determined as 0.9 µg/mL (≈ 1.75 µM).

With `COc1cc(-c2c[nH]c(C3CCCCCC3)n2)cc(OC)c1OCc1ccc(C(F)(F)F)cn1` [Example 74], the melting point lay in the range of 177 to 179 °C. Moreover, the solubility at 24 h in series [1] (setting [2]) was 53.6 µg/mL (≈ 113 µM). In addition, in series [1] (setting [3]), the solubility at 24 h turned out to be 1.8 µg/mL (≈ 3.79 µM).

On to `COc1cc(O[C@@H](C)c2ccc(C(F)(F)F)cc2)ccc1-c1[nH]c(-c2ccc(F)nc2)nc1Cl` [Example 288], for which the melting point was 137 to 139 °C. Besides, the solubility at 24 h in series [1] (setting [2]) is less than 0.3 µg/mL. In series [1] (setting [3]), the solubility at 24 h was found to be 23.4 µg/mL (≈ 47.6 µM).

As for `COc1cc(OCc2ccc(Br)cc2F)ccc1-c1c[nH]c(-c2ccc(C)nc2)n1` [Example 86], the melting point is 218 to 220 °C (dec.). Besides, the solubility at 24 h in series [1] (setting [2]) was 73.5 µg/mL (≈ 157 µM). In addition, in series [1] (setting [3]), the solubility at 24 h was less than 0.3 µg/mL.

For `COc1cc(OCc2ncccc2C#N)ccc1-c1cnc(C2CCC(F)(F)CC2)[nH]1` [Example 7], the melting point was in the range of 69 to 89 °C. In series [1] (setting [2]), the solubility at 24 h is 84 µg/mL (≈ 198 µM). Moreover, the solubility at 24 h in series [1] (setting [3]) came to 40.2 µg/mL (≈ 94.7 µM).

`COc1cc(OCc2coc(C)n2)ccc1-c1[nH]c(C2CCC(F)(F)CC2)nc1Cl` [Example 197] displayed a melting point of 130 to 131 °C. Also, the solubility at 24 h in series [1] (setting [2]) was more than 88 µg/mL. The solubility at 24 h in series [1] (setting [3]) amounted to 25.7 µg/mL (≈ 58.7 µM).

Turning to `COc1cc(OCn2cccn2)ccc1-c1c[nH]c(-c2ccc(F)nc2)n1` [Example 120], the melting point fell in the range of 172 to 175 °C. Moreover, the solubility at 24 h in series [1] (setting [2]) is more than 73 µg/mL. In addition, the solubility at 24 h in series [1] (setting [3]) amounted to 4 µg/mL (≈ 10.9 µM).

In turn, `COc1cc(OCc2ncccc2C(F)(F)F)ccc1-c1[nH]c(-c2ccc(F)nc2)nc1Br` [Example 275] yielded a melting point of 144 to 154 °C. In addition, the solubility at 24 h in series [1] (setting [2]) was 96 µg/mL (≈ 183 µM). The solubility at 24 h in series [1] (setting [3]) amounted to 4.2 µg/mL (≈ 8.03 µM).

For the compound `COc1cc(OCc2cc(C(F)(F)F)ccn2)ccc1-c1cnc(-c2ccc(F)nc2)[nH]1` [Example 114], the melting point fell in the range of 183 to 186 °C. Moreover, the solubility at 24 h in series [1] (setting [2]) is 11.3 µg/mL (≈ 25.4 µM). In addition, the solubility at 24 h in series [1] (setting [3]) amounted to 2.7 µg/mL (≈ 6.08 µM).

The compound `COc1cc(OCc2ccc(C(F)(F)F)cn2)ccc1-c1c[nH]c(-c2ccc(F)cn2)n1` [Example 41] came in with a melting point of 152 to 154 °C. For the same compound, in series [1] (setting [2]), the solubility at 24 h was 23.3 µg/mL (≈ 52.4 µM). Moreover, the solubility at 24 h in series [1] (setting [3]) stood at 1.3 µg/mL (≈ 2.93 µM).

On to `COc1cc(OCc2ccc(C(F)(F)F)nc2)c(C)cc1-c1[nH]c(C2CCC(F)(F)CC2)nc1Cl` [Example 192], for which the melting point was 175 to 178 °C. For the same compound, the solubility at 24 h in series [1] (setting [2]) was 22.6 µg/mL (≈ 43.8 µM). For the same compound, in series [1] (setting [3]), the solubility at 24 h stood at 0.6 µg/mL (≈ 1.16 µM).
